Experimental data taken from the supplement of paper PMC10307832.

Experiments:
Assay in all cases: relative viability (nuclei count vs DMSO), 5 days (fraction); higher = more cells survive
HOP-62 = system: HOP-62
Procedure, shortened: (§1)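 Dosing by pin tool came one day after lung cancer cell lines were seeded in 1536-well plates, using either one drug or a fixed anchor-drug dose plus five library-drug doses (not always all listed) in √10 steps. After 5 days, nuclei were counted on 4× images. Relative viability is treated-well nuclei count divided by vehicle-well nuclei count, and values are medians of duplicate plates.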

NCI-H1975 = system: NCI-H1975
Procedure, shortened: as §1

LOU-NH91 = system: LOU-NH91
Procedure, shortened: as §1

NCI-H3122 = system: NCI-H3122
Procedure, shortened: as §1

NCI-H650 = system: NCI-H650
Procedure, shortened: as §1

HCC-827 = system: HCC-827
Procedure, shortened: as §1

NCI-H2126 = system: NCI-H2126
Procedure, shortened: as §1

NCI-H661 = system: NCI-H661
Procedure, shortened: as §1

SK-LU-1 = system: SK-LU-1
Procedure, shortened: as §1

NCI-H727 = system: NCI-H727
Procedure, shortened: as §1

CCNC(=O)c1noc(-c2cc(C(C)C)c(O)cc2O)c1-c1ccc(CN2CCOCC2)cc1 [Luminespib] + CS(=O)(=O)CCNCc1ccc(-c2ccc3ncnc(Nc4ccc(OCc5cccc(F)c5)c(Cl)c4)c3c2)o1 [Lapatinib] (partner 2 µM)
relative viability (HOP-62; first compound 0.002 µM): 1.13
relative viability (HOP-62; first compound 0.006325 µM): 1.08
relative viability (HOP-62; first compound 0.02 µM): 0.695
relative viability (HOP-62; first compound 0.06325 µM): 0.762
relative viability (HOP-62; first compound 0.2 µM): 0.0994
relative viability (NCI-H1975; first compound 0.002 µM): 0.951
relative viability (NCI-H1975; first compound 0.006325 µM): 0.739
relative viability (NCI-H1975; first compound 0.02 µM): 0.291
relative viability (NCI-H1975; first compound 0.06325 µM): 0.126
relative viability (NCI-H1975; first compound 0.2 µM): 0.113
relative viability (LOU-NH91; first compound 0.002 µM): 0.791
relative viability (LOU-NH91; first compound 0.006325 µM): 0.833
relative viability (LOU-NH91; first compound 0.02 µM): 0.588
relative viability (LOU-NH91; first compound 0.06325 µM): 0.338
relative viability (LOU-NH91; first compound 0.2 µM): 0.342
relative viability (NCI-H3122; first compound 0.002 µM): 1.09
relative viability (NCI-H3122; first compound 0.006325 µM): 0.951
relative viability (NCI-H3122; first compound 0.02 µM): 1.02
relative viability (NCI-H3122; first compound 0.06325 µM): 0.24
relative viability (NCI-H3122; first compound 0.2 µM): 0.168
relative viability (NCI-H650; first compound 0.002 µM): 0.888
relative viability (NCI-H650; first compound 0.006325 µM): 0.838
relative viability (NCI-H650; first compound 0.02 µM): 0.507
relative viability (NCI-H650; first compound 0.06325 µM): 0.0944
relative viability (NCI-H650; first compound 0.2 µM): 0.149
relative viability (HCC-827; first compound 0.002 µM): 0.184
relative viability (HCC-827; first compound 0.006325 µM): 0.184
relative viability (HCC-827; first compound 0.02 µM): 0.172
relative viability (HCC-827; first compound 0.06325 µM): 0.235
relative viability (HCC-827; first compound 0.2 µM): 0.185
relative viability (NCI-H2126; first compound 0.002 µM): 0.798
relative viability (NCI-H2126; first compound 0.006325 µM): 0.776
relative viability (NCI-H2126; first compound 0.02 µM): 0.582
relative viability (NCI-H2126; first compound 0.06325 µM): 0.647
relative viability (NCI-H2126; first compound 0.2 µM): 0.526
relative viability (NCI-H661; first compound 0.002 µM): 0.469
relative viability (NCI-H661; first compound 0.006325 µM): 0.464
relative viability (NCI-H661; first compound 0.02 µM): 0.35
relative viability (NCI-H661; first compound 0.06325 µM): 0.324
relative viability (NCI-H661; first compound 0.2 µM): 0.208
relative viability (SK-LU-1; first compound 0.002 µM): 0.905
relative viability (SK-LU-1; first compound 0.006325 µM): 0.469
relative viability (SK-LU-1; first compound 0.02 µM): 0.424
relative viability (SK-LU-1; first compound 0.06325 µM): 0.164
relative viability (SK-LU-1; first compound 0.2 µM): 0.133
relative viability (NCI-H727; first compound 0.002 µM): 0.82
relative viability (NCI-H727; first compound 0.006325 µM): 0.768
relative viability (NCI-H727; first compound 0.02 µM): 0.435
relative viability (NCI-H727; first compound 0.06325 µM): 0.227
relative viability (NCI-H727; first compound 0.2 µM): 0.192
